# Assay results published in EP0979243B1, “ACTIVATION OF PEPTIDES” (Anmat Technology Limited, priority 1997, dated 2006).
# Format: biochemical
# Method: As an example of particulates for use in drug-delivery or diagnostic assay,liposomes encapsulating Calcein (Sigma) dye were prepared by the extrusion method of Biochim. Biophys. Acta (1985) 812; 55. Specifically, Phosphotidylcholine (12mg) and cholesterol (2mg) were evaporated to form a lipid film in a round bottom flask. The film was hydrated with 2ml of 120mM Calcein in 10mM sodium phosphate/120mM Sodium chloride buffer of pH 7.4. Liposomes were then prepared by ten times extrusion through a 0.2 micron polycarbonate filter using the reported method. Any non-encapsulated dye was removed by gel filtration on a PD-10 column.
# In a typical assay a 2ml buffer containing a known concentration (depending on the activity) of a peptide prepared as in Example 1 is treated with 3µl liposomes prepared as in Example 2. The progress of dye leakage from the liposomes indicates release of the marker and is followed by recording an increase in fluorescence signal. The assay can be repeated in the presence of a binder. Where Calcein is used as the dye excitation and emission wavelengths of 490nm and 520nm were used. […]. The concentration of binder required to fully bind the peptide can be evaluated using series of binder concentration at fixed peptide concentrations or vice versa. […]
compound,measurement,setting,value
CC[C@H](C)[C@H](NC(=O)CNC(C)=O)C(=O)NCC(=O)N[C@@H](C)C(=O)N[C@H](C(=O)N[C@@H](CC(C)C)C(=O)N[C@@H](CCCNC(=N)N)C(=O)N[C@H](C(=O)N[C@@H](CC(C)C)C(=O)N[C@H](C(=O)N[C@H](C(=O)NCC(=O)N[C@@H](CCCCNC(=O)CCCC[C@@H]1SC[C@@H]2NC(=O)N[C@@H]21)C(=O)N1CCC[C@H]1C(=O)N[C@@H](C)C(=O)N[C@@H](CC(C)C)C(=O)N[C@H](C(=O)N[C@@H](CO)C(=O)N[C@@H](Cc1c[nH]c2ccccc12)C(=O)N[C@H](C(=O)N[C@@H](CCCNC(=N)N)C(=O)N[C@@H](CCCNC(=N)N)C(=O)N[C@@H](CCCNC(=N)N)C(=O)N[C@@H](CCCNC(=N)N)C(=O)N[C@@H](CCC(N)=O)C(=O)N[C@@H](CCC(N)=O)C(N)=O)[C@@H](C)CC)[C@@H](C)CC)[C@@H](C)O)[C@@H](C)O)C(C)C)C(C)C [biotin modified peptide of example 1b],stability of integrated system (single reagent) in the inactive form,"Figure 4A, under 2hrs, avidin and liposomes in 2ml buffer",very stable with little or no leakage of the contents
same,stability and activation of integrated system,"Figure 4B, under 17hrs, nitroavidin and liposomes in 2ml buffer, biotin added at point X",stable and activated specifically with ligand
